Reference: PMC11271967, “An inhibitory mechanism of AasS, an exogenous fatty acid scavenger: Implications for re-sensitization of FAS II antimicrobials” (PLOS Pathogens, 2024)

Key:
[1] = test system: AasS-expressing E. coli ΔbioC strain; experiment: AasS-based bypass of biotin synthesis, bacterial viability on M9 agar; format: cell-based, Escherichia coli; conditions: M9 agar with E-C7 as sole carbon source; 0, 50, 100, 500 μM tested
Text: Fig 4 Integrated evidence for the inhibition of AasS action with E-C7 fatty acid by C10-AMS compound. A. Schematic diagram of AasS-catalyzed ligation of E-C7 with holo-ACP recipient to produce E-C7-ACP. […] A representative photograph of three independent trials was given. C. Relatively-quantitative analysis (for the inhibitory efficacy of C10-AMS on AasS-catalyzed E-C7-ACP production. As for AasS reaction (panel B), unlike the three components that are at constant levels, namely (i) AasS (31.25 nM), (ii) E-C7 (600 μM), and (iii) ACP (3 μg), C10-AMS inhibitor was supplemented at varied ratio in relative to the AasS enzyme (ranging from 0:1, 25:1, 50:1, 100:1, 200:1, 300:1, 400:1, to 500:1). The ImageJ software was applied to measure the relative percentage (%) of E-C7 fatty acylation in each AasS reaction. The resultant graphs were plotted from three independent experiments, in which the output was expressed as means ± SD (standard deviations). D. Schematic diagram for C10-AMS inhibition of AasS-based bypass of biotin requirement by the E. coli ΔbioC biotin auxotroph on the non-permissive condition. […] Log-phase cultures in a series of 10-fold dilution (shown in panel on right hand), were spotted on the x-gal-containing M9 agar plates supplemented with C10-AMS inhibitor at varied levels (0, 50, 100, to 500 μM). The addition of x-gal substrate enabled the occurrence of blue colonies for better photographing, and viable colonies were highlighted with yellow arrows.
Given that AasS ligates E-C7 fatty acid with holo-ACP, giving E-C7-ACP, an alternative precursor for bacterial biotin synthesis, plasmid-borne aasS expression in ΔbioC biotin auxotroph strain is assumed to overcome the requirement of the primary BioC step [58, 83]. Apart from its WT, three single mutants of AasS (D411A, R426A, and K432A) were examined in vivo, of which the compromised activity is presumably proportional to the varied viability of the ΔbioC reporter strains on the non-permissive M9 growth condition. To test its inhibitory effect, the C10-AMS inhibitor in a series of dilution was supplemented. […]

AasS [2] = target: T1, AasS (Vibrio harveyi, UniProt Q00IB3); experiment: Isothermal titration calorimetry (ITC), wild-type AasS; format: binding; conditions: AasS ~40 μM saturated with ATP 120 μM
Method: The assays of Isothermal titration calorimetry (ITC) were conducted to address the stoichiometry of AasS binding to its C10-AMS inhibitor and C10-AMP intermediate. Since both malic acid and pimelic acid are not substrates for AasS, the two dicarboxylic acids were assumed as negative controls in our ITC analysis. Using a micro-calorimeter (MicroCal PEAQ-ITC) as recently described for E-C7 with little change, totally 18 titrations (2 μl each at an internal of 2.5 min) proceeded in the cell at room temperature. Prior to the titration, AasS protein (~40 μM) was saturated with its ATP cofactor (120 μM) in the cell, and C10-AMS inhibitor (or C10) was kept at 600 μM in the syringe. The titration buffer was composed of 150 mM NaCl, 25 mM Tris-HCl (pH8.0), 2 mM DTT, and 3 mM MgCl2. One set of site model by the MicroCal PEAQ-ITC software enabled plotting the titration curves. Next, the stoichiometry (N) and dissociation constant (Kd) were calculated. It was given as an average ± standard deviation (SD) from three independent trials.

AasS [3] = target: T1, AasS; experiment: Microscale thermophoresis (MST), wild-type AasS; format: binding; conditions: MST
Method: (§1) To validate poor binding of AasS(D411A) to C10 fatty acyl adenylate observed in our ITC assays, the relatively-more sensitive approach of microscale thermophoresis (MST) was additionally applied here as Jerabek-Willemsen et al. described with minor alteration. Using the Protein Labeling Kit (Protein Labeling Kit RED-NHS 2nd Generation, Nano Temper Technology), both the wild-type AasS and its D411A mutant were fluorescently labelled in the MST buffer (150 mM NaCl, 25 mM Tris-HCl, 3 mM MgCl2, 0.05% Tween-20, pH 8.0). The ligand C10-AMP used in MST assays was prepared by an equal mixture of C10 and ATP. In general, an NT.115 Monolith instrument (Nano Temper Technology, Germany) was integrated, of which the routine parameters included a RED/LED (20%) excitation power along with 60% laser power for excitation. Then, the protein samples were siphoned into MST Premium Coated capillaries for the determination of binding affinity at room temperature. The final concentrations of different AasS samples were 40 nM for WT, and 180 nM for D411A, respectively. The mixture of C10/ATP was diluted in a gradient (from 0.15 nM to 5.0 μM). Three independent MST experiments were conducted here. The dissociation constants (Kd) were calculated using the software MO. Affinity Analysis v2.3. Of note, this was largely dependent on the KD model with a 1:1 stoichiometry per binding partner.

AasS(D411A) = experiment: Microscale thermophoresis (MST), AasS(D411A) mutant; format: binding, Vibrio harveyi; conditions: MST
Method: as §1

T1 sequence (Q00IB3 entry or part of it): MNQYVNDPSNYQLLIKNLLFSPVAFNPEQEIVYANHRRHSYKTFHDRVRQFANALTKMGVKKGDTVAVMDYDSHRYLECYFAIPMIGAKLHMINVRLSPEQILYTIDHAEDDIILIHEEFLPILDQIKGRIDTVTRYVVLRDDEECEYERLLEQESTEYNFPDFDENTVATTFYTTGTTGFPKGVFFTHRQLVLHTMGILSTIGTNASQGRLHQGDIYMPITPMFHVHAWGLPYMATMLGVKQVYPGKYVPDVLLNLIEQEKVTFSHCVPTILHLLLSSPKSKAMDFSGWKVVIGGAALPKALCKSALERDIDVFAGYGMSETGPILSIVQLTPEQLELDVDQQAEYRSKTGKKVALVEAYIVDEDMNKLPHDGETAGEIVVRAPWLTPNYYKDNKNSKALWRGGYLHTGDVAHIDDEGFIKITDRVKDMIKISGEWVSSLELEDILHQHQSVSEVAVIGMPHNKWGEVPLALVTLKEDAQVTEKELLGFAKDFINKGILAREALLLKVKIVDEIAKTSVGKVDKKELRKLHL

CCCCCCCCCC(=O)NS(=O)(=O)OC[C@H]1O[C@@H](n2cnc3c(N)ncnc32)[C@H](O)[C@@H]1O [C10-AMS]
C10-AMS level that markedly impaired AasS-based bypass of biotin synthesis [1]: over 100 μM | stoichiometry (n) (AasS [2]): 0.97±0.16 | Kd (AasS [2]; ligand 600 μM in syringe, room temperature, read-out: dissociation constant (Kd)): 0.0141 ± 0.00382 µM | Average (DeltaFNorm), AasS(WT) (AasS [3]; Dose 1.52588e-10): 0.4239 | Average (DeltaFNorm), AasS(WT) (AasS [3]; Dose 3.05176e-10): 1.688 | Average (DeltaFNorm), AasS(WT) (AasS [3]; Dose 6.10352e-10): 0.6276 | Average (DeltaFNorm), AasS(WT) (AasS [3]; Dose 1.2207e-9): -0.2133 | Average (DeltaFNorm), AasS(WT) (AasS [3]; Dose 2.44141e-9): -0.7539 | Average (DeltaFNorm), AasS(WT) (AasS [3]; Dose 4.88281e-9): -0.9203 | Average (DeltaFNorm), AasS(WT) (AasS [3]; Dose 9.76563e-9): -2.469 | Average (DeltaFNorm), AasS(WT) (AasS [3]; Dose 1.95313e-8): -0.4913 | Average (DeltaFNorm), AasS(WT) (AasS [3]; Dose 3.90625e-8): -0.5142 | Average (DeltaFNorm), AasS(WT) (AasS [3]; Dose 7.8125e-8): -1.198 | Average (DeltaFNorm), AasS(WT) (AasS [3]; Dose 1.5625e-7): -2.398 | Average (DeltaFNorm), AasS(WT) (AasS [3]; Dose 3.125e-7): -4.638 | Average (DeltaFNorm), AasS(WT) (AasS [3]; Dose 6.25e-7): -6.534 | Average (DeltaFNorm), AasS(WT) (AasS [3]; Dose 1.25e-6): -7.36 | Average (DeltaFNorm), AasS(WT) (AasS [3]; Dose 2.5e-6): -8.128 | Average (DeltaFNorm), AasS(WT) (AasS [3]; Dose 5e-6): -7.529 | Average (DeltaFNorm), AasS(D411A) (AasS(D411A); Dose 1.52588e-10): 4.014 | Average (DeltaFNorm), AasS(D411A) (AasS(D411A); Dose 3.05176e-10): 2.739 | Average (DeltaFNorm), AasS(D411A) (AasS(D411A); Dose 6.10352e-10): 3.15 | Average (DeltaFNorm), AasS(D411A) (AasS(D411A); Dose 1.2207e-9): 3.03 | Average (DeltaFNorm), AasS(D411A) (AasS(D411A); Dose 2.44141e-9): -1.436 | Average (DeltaFNorm), AasS(D411A) (AasS(D411A); Dose 4.88281e-9): 1.165 | Average (DeltaFNorm), AasS(D411A) (AasS(D411A); Dose 9.76563e-9): 0.1826 | Average (DeltaFNorm), AasS(D411A) (AasS(D411A); Dose 1.95313e-8): -0.6893 | Average (DeltaFNorm), AasS(D411A) (AasS(D411A); Dose 3.90625e-8): 2.194 | Average (DeltaFNorm), AasS(D411A) (AasS(D411A); Dose 7.8125e-8): -2.669 | Average (DeltaFNorm), AasS(D411A) (AasS(D411A); Dose 1.5625e-7): -0.9022 | Average (DeltaFNorm), AasS(D411A) (AasS(D411A); Dose 3.125e-7): -3.911 | Average (DeltaFNorm), AasS(D411A) (AasS(D411A); Dose 1.25e-6): -3.293 | Average (DeltaFNorm), AasS(D411A) (AasS(D411A); Dose 2.5e-6): -1.334 | Average (DeltaFNorm), AasS(D411A) (AasS(D411A); Dose 5e-6): -2.2407
